Read-outs that look alike come from different tables or passages of the source. Positions of bridges follow the written chain, without caps; N, C: chain ends. Residues, ends and D or L forms follow the SMILES beside them.
Assays:
[1] = Ex vivo metabolism of LAT8881 in human whole blood; format: in vitro ADME
Method: (§1) Human or rat blood was collected into K2EDTA tubes and approximately 2.94 mL of blood was transferred into a polypropylene tube and kept in a water bath at 37° C. […] At the indicated times, approximately 300 μL of the spiked blood sample was transferred into a vial containing 30 μL of OX Protease Inhibitor Cocktail (Sigma Aldrich; Product No. P2714), mixed well and centrifuged at 4° C. The plasma fraction was then collected, transferred into polypropylene tubes and stored at -80° C. […] […] NO:11)) and vortex-mixed with 200 μL of acetonitrile for 5 min at 1500 rpm. The resulting mixture was then centrifuged at 14000 rpm for 5 min and the supernatant was evaporated at 37° C. under a stream of nitrogen to dryness. The residue was reconstituted in 150 μL of reconstitution solution and approximately 150 μL of the reconstituted sample was transferred to a 96 well-plate for injection into the LC-MS system. […] The mobile phase was (a) 5% acetonitrile/water with 0.1% formic acid, and (b) 95% acetonitrile/water with 0.1% formic acid. Eluted peaks were analysed using mass spectrometry. For the analysis of LAT9998 (SEQ ID NO:11), a 5 μL aliquot of each plasma sample was injected into a Shimadzu Nexera UPLC system equipped with a Phenomenex Aeris Peptide XB-C18, 3.6 μm, 150×2.1 mm. The mobile phase was (a) 5% acetonitrile/water with 0.1% formic acid, and (b) 95% acetonitrile/water with 0.1% formic acid. Eluted peaks were analysed using mass spectrometry. Samples were analysed using an AB Sciex QTrap 5500 mass spectrometer with ESI in positive mode. MRM analyses were conducted with Ion Spray (IS) at 5500 V and the Curtain Gas (CUR) was set at 20. Multiple MRM transitions were monitored to ensure the chromatographic peaks observed are from the nominal compound. Results are reported as analyte peak area ratios (normalized versus internal standard peak area).

[2] = Ex vivo metabolism of LAT8881 in rat whole blood; format: in vitro ADME
Method: as §1

[3] = in vivo
[4] = system: rats with CFA-induced inflammation; experiment: Paw withdrawal threshold in CFA-induced inflammatory (nociceptive) pain; format: in vivo, rat; settings: 3 mg/kg body weight; at 1 and 2 hours after administration
Method: Briefly, rats were anaesthetized with 3% isoflurane mixed with 97% oxygen. The left paw was injected with 0.05 ml CFA emulsion (F5881, Sigma-Aldrich) in saline (CFA:saline=1:1, vol./vol.). After CFA injection, the animals were returned to their home cages. Regular observations were be carried out to monitor the conditions of the animals after injection.

[5] = system: nerve cells in spinal cord slices; experiment: Spontaneous electrical activity in spinal cord slices from Chung model rats; format: cell-based, rat; settings: 1 μM added to spinal cord slice
Method: Within 2 minutes of addition of 1 μM LATc9991F to the spinal cord slice, this electrical activity was suppressed; * indicates time that LATc9991F was added to the spinal cord slice preparation.
This study was undertaken to assess the effect of LATc9991F (SEQ ID NO:10) on spontaneous electrical activity on spinal cord slices from Chung model rats with confirmed neuropathic pain. LATc9991F is a non-human variant of LAT9991F that is derived from the feline, canine and equine variants of human growth hormone, as described in WO 2013/082667.
Briefly, spinal cord slices were prepared from Chung model rats with confirmed neuropathic pain symptoms, and spontaneous electrical activity was measured as in Example 1. […] Within 2 minutes of addition of LATc9991F to the slice, this electrical activity was suppressed by LATc9991F.

[6] = system: Chung rats; experiment: Paw withdrawal threshold in nerve constriction model of neuropathic pain (Chung model); format: in vivo, rat; settings: for paw withdrawal threshold of ipsilateral paw: vs vehicle
Method: Briefly, adult male Sprague-Dawley rats, 8-9 weeks old, weighing 220-250 g at the time of surgery, were purchased from Charles River UK Ltd.
The animals were housed in groups of 4 in an air-conditioned room on a 12-hour light/dark cycle. Food and water were available ad libitum. They were allowed to acclimatise to the experimental environment for three days by leaving them on a raised metal mesh for at least 40 min. The baseline paw withdrawal threshold (PWT) was examined using a series of graduated von Frey hairs for 3 consecutive days before surgery and re-assessed on the 6th to 8th day after surgery and on the 12th to 14th day after surgery before drug dosing.
Each rat was anaesthetized with 5% isoflurane mixed with oxygen (2 L per min) followed by an intramuscular (i.m.) injection of ketamine 90 mg/kg plus xylazine 10 mg/kg. The back was shaved and sterilized with povidone-iodine. The animal was placed in a prone position and a para-medial incision was made on the skin covering the L4-6 level. The L5 spinal nerve was carefully isolated and tightly ligated with 6/0 silk suture. The wound was then closed in layers after a complete hemostasis. A single dose of antibiotics (Amoxipen, 15 mg/rat, i.p.) was routinely given for prevention of infection after surgery. The animals were placed in a temperature-controlled recovery chamber until fully awake before being returned to their home cages.
The vehicle (1% DMSO in PBS) and LAT8881 (AOD9604, GL449; provided by Lateral Pharma Pty Ltd) was administrated intramuscularly (i.m.) into the leg of the side contralateral to the site of injury. Dosing was carried out by a second experimenter. The rats with validated neuropathic pain state were randomly divided into 5 experimental groups: 1 ml/kg vehicle, 0.1, 0.5, 1 and 5 mg/kg LAT8881.
Each group had 8 animals. The animals were placed in individual Perspex boxes on a raised metal mesh for at least 40 minutes before the test. Starting from the filament of lowest force (about 1 g), each filament was applied perpendicularly to the centre of the ventral surface of the paw until slightly bent for 6 seconds. If the animal withdrew or lifted the paw upon stimulation, then a hair with force immediately lower than that tested was used. If no response was observed, then a hair with force immediately higher was tested. The lowest amount of force required to induce reliable responses (positive in 3 out of 5 trials) was recorded as the value of PWT.
The drug test was carried out on the 12th to 14th day after surgery. PWT were assessed before, 1, 2 and 4 hours following drug or vehicle administration. The animals were rested by being returned to their home cages (about 30-60 min) between two neighbouring testing time points. LAT8881 was administered by a single intramuscular injection (IM) in the ipsilateral limb at a dose of about 0.1 mg/kg body weight to about 5 mg/kg body weight.
LAT9991 was administered by a single intramuscular injection (IM) in the ipsilateral limb at a dose of about 0.1 mg/kg body weight to about 5 mg/kg body weight.
Gabapentin, as a positive control, obtained from Actavis, UK (Lot No. GJ29), was administered orally at 100 mg/2 ml/kg in normal saline. Dosing was carried out by a second experimenter.
Briefly, LAT9991F was administered orally at a dose of about 1 mg/kg body weight to about 5 mg/kg body weight.
Briefly, LAT9991 was administered orally at a dose of about 1 mg/kg body weight, 2 mg/kg body weight and 5 mg/kg body weight.

[7] = system: Lamina I or II neurones; experiment: Whole-cell patch clamp on spinal cord slices with intact dorsal root afferents: evoked post-synaptic currents; format: cell-based, rat; settings: comparator; data not shown
Method: An in vitro spinal cord slice with intact dorsal root afferents combined with single-cell whole-cell patch clamp electrophysiological recording techniques was used to assess the electrophysiological properties of the peptide having the amino acid sequence of SEQ ID NO:2.
Spinal cord slices were prepared from chronic nerve constriction models of neuropathic pain (Chung models) and tested against the peptide of SEQ ID NO:2.
The spinal nerve ligation model (Chung model) was first reported by Kim and Chung (1992; Pain, 50(3):355-63) and involves a single tight ligation of the L5 spinal nerve. […] This model has been used as a “gold standard’ model for assessing the efficacy of novel compounds targeting neuropathic pain.
Adult male Sprague-Dawley rats, 8-9 weeks old, weighing 220-250 g at the time of surgery, were purchased from Charles River UK Ltd. The animals were housed in groups of 4 in an air-conditioned room on a 12-hour light/dark cycle. […] The baseline paw withdrawal threshold (PWT) was examined using a series of graduated von Frey hairs for 3 consecutive days before surgery and re-assessed on the 6th to 8th day after surgery and on the 12th to 14th day after surgery before drug dosing Each rat was anaesthetized with 5% isoflurane mixed with oxygen (2 L per min) followed by an intramuscular (i.m.) injection of ketamine 90 mg/kg plus xylazine 10 mg/kg. […]

With `CC[C@H](C)[C@H](NC(=O)[C@H](CCCNC(=N)N)NC(=O)[C@H](CC(C)C)NC(=O)[C@@H](N)Cc1ccc(O)cc1)C(=O)N[C@H](C(=O)N[C@@H](CCC(N)=O)C(=O)N[C@H]1CSSC[C@@H](C(=O)NCC(=O)N[C@@H](Cc2ccccc2)C(=O)O)NC(=O)[C@H](CO)NC(=O)CNC(=O)[C@H](CCC(=O)O)NC(=O)[C@H](C(C)C)NC(=O)[C@H](CO)NC(=O)[C@H](CCCNC(=N)N)NC1=O)C(C)C` [LAT8881, YLRIVQCRSVEGSCGF] (H-YLRIVQCRSVEGSCGF-OH; disulfide 7-14; N-terminus and C-terminus assumed) the half-life ([1]; human blood, LAT8881-spiked, 37° C., read-out: ex vivo half-life) was 3 to 6 min, the half-life ([2]; rat blood, LAT8881-spiked, 37° C., read-out: ex vivo half-life) was 3 to 6 min and the half-life [3] was < 1 min.

In the case of `CC(C)[C@@H]1NC(=O)[C@H](CO)NC(=O)[C@H](CCCNC(=N)N)NC(=O)[C@@H](N)CSSC[C@@H](C(=O)NCC(=O)N[C@@H](Cc2ccccc2)C(=O)O)NC(=O)[C@H](CO)NC(=O)CNC(=O)[C@H](CCC(=O)O)NC1=O` [LAT9991F, CRSVEGSCGF] (H-CRSVEGSCGF-OH; disulfide 1-8; N-terminus and C-terminus assumed), the half-life ([1]; human, blood) is reported as > 60 min and the half-life ([2]; rat, blood) is reported as > 60 min.

With `CN1CC[C@]23c4c5ccc(O)c4O[C@H]2[C@@H](O)C=C[C@H]3[C@H]1C5` [morphine] the “analgesic effect on nociceptive pain (paw withdrawal threshold)” value [4] was “significant analgesic effect”.

In the case of “CRRFVESSCA (listed as Canis lupus) [LATc9991F, non-human variant of LAT9991F derived from the feline, canine and equine variants of human growth hormone]”, the “spontaneous electrical activity in nerve cells” value [5] is reported as “suppressed” and the “time after addition within which electrical activity was suppressed” value [5] is reported as ≤ 2 min.

For “CRSVEGSC (listed as Homo sapiens) [LAT9998, metabolite of LAT8881]”, the “Detection of LAT9998 (peak area ratio) in all samples” value [1] was “LAT9998 peaks were not detectable” and the “Detection of LAT9998 (peak area ratio) in all samples” value [2] was “LAT9998 peaks were not detectable”.

In the case of “CRSVEGSCG (listed as Homo sapiens) [LAT9991]”, the “analgesic effect compared with gabapentin at 100 mg/kg body weight orally” value ([6]; 5 mg/kg body weight PO) is reported as “comparable”, the “analgesic effect compared with gabapentin at 100 mg/kg body weight” value ([6]; 5 mg/kg body weight i.m.) is reported as “comparable” and the “effect on the contralateral paw responses” value ([6]; PO) is reported as “No effect”. The “time after administration within which effect on paw withdrawal threshold was observed” value ([6]; PO) was ≤ 1 h, the “time for which effect on paw withdrawal threshold was maintained” value ([6]; PO) was “at least 4 hours” and the “improvement in paw withdrawal threshold compared with LAT8881” value ([6]; PO, vs Example 7) was “comparable”. For the same molecule, the “effect on the contralateral paw” value ([6]; i.m.) was “no effect”, the “time after administration within which effect on paw withdrawal threshold was observed” value ([6]; i.m.) was ≤ 1 h and the “time for which effect on paw withdrawal threshold was maintained” value ([6]; i.m.) was “at least 4 hours”. The “improvement in paw withdrawal threshold compared with LAT8881” value ([6]; i.m., vs Example 5) was “comparable”, the “biological activity compared to the parent peptide LAT8881 (magnitude and duration of neuropathic analgesia)” value ([6]; nerve constriction model) was “equivalent or substantially equivalent” and the “paw withdrawal threshold of ipsilateral paw” value ([6]; oral gavage 1, 2 and 5 mg/kg body weight) was “significant dose-dependent improvement”. The “paw withdrawal threshold of ipsilateral paw” value ([6]; single i.m. injection, about 0.1 to 5 mg/kg body weight) was “significant dose-dependent improvement”.

For “human growth hormone: human growth hormone, comparator in the spinal cord slice recording”, the “effect on post-synaptic current” value [7] was “no effect”.

— patent US20200390850A1, “PEPTIDES AND USES THEREOF” (LATERAL IP PTY LTD, priority 2018, published 2020)
